Experimental data as given in US10968215B2 (SHANGHAI HAIHE PHARMACEUTICAL CO., LTD., priority 2016, dated 2021).

The compounds below were run against PRC2 complex (EZH2 Y641F/EED/SUZ12/RbAp48/AEBP2) (Homo sapiens (Human), UniProt Q15910, Y641F) (assay: Activity of a compound to PRC2 complex (EZH2 Y641F), HTRF). Conditions: not given.
PRC2 complex (EZH2 Y641F/EED/SUZ12/RbAp48/AEBP2), sequence (Q15910 whole entry Y641F): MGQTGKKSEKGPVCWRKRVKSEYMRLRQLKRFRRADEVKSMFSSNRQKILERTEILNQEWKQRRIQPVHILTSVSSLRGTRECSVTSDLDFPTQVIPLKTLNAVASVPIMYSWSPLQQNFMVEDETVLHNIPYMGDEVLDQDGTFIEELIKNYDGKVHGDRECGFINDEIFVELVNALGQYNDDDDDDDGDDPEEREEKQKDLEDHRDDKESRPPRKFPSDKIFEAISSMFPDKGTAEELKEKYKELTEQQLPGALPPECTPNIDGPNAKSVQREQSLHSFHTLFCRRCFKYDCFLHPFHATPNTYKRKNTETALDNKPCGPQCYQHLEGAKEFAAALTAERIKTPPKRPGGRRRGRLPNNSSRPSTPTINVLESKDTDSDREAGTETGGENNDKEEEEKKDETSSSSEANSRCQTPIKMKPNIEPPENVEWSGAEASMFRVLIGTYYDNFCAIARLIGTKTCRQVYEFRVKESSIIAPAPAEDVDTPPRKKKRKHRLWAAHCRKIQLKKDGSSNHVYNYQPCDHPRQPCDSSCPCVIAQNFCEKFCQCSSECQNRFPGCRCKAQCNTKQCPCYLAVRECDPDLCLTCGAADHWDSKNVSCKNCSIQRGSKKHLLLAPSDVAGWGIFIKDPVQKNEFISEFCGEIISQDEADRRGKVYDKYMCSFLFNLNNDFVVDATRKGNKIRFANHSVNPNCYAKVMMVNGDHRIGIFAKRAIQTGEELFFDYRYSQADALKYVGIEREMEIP
PRC2 complex (EZH2 Y641F/EED/SUZ12/RbAp48/AEBP2), sequence (O75530 whole entry partner): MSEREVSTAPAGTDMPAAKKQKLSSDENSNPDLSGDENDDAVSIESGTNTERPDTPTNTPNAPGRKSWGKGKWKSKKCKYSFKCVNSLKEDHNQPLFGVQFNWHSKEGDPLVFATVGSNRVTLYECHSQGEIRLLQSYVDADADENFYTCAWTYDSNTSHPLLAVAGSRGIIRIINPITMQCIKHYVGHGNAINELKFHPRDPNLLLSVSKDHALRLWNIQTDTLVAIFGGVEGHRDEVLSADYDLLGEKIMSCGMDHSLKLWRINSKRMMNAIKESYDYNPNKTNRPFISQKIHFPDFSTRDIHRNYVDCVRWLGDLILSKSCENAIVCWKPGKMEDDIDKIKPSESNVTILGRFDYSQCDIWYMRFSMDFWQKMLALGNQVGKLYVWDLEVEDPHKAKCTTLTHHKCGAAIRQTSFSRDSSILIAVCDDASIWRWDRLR
PRC2 complex (EZH2 Y641F/EED/SUZ12/RbAp48/AEBP2), sequence (Q15022 whole entry partner): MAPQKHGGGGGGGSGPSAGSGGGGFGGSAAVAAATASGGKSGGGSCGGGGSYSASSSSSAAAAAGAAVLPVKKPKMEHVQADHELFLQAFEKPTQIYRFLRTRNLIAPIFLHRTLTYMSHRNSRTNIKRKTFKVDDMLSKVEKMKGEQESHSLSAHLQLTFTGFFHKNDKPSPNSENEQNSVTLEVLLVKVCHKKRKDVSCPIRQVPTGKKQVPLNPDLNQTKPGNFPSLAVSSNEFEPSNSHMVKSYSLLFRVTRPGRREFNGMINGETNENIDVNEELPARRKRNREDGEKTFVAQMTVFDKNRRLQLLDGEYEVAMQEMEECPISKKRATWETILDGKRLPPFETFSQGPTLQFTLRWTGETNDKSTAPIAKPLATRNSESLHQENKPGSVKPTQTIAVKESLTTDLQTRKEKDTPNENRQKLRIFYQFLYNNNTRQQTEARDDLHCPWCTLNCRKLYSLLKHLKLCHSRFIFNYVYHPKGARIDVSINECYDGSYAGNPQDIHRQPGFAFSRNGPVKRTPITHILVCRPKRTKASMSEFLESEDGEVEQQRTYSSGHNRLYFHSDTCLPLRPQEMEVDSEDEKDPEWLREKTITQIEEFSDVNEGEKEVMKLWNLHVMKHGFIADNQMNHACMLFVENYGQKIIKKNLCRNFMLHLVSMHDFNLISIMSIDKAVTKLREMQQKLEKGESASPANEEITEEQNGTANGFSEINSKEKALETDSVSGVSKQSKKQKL
PRC2 complex (EZH2 Y641F/EED/SUZ12/RbAp48/AEBP2), sequence (Q09028 whole entry partner): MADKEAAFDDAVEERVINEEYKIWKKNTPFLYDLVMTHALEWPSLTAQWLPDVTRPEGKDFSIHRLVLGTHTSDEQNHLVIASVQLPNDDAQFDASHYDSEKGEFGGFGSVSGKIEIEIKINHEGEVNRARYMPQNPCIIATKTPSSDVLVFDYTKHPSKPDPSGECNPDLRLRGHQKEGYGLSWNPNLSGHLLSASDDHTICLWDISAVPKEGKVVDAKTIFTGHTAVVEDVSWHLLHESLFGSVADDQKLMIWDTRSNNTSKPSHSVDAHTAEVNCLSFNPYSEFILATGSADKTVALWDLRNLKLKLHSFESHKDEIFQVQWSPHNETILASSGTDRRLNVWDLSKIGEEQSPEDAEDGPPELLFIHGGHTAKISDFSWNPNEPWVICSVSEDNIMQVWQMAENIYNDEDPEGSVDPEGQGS
PRC2 complex (EZH2 Y641F/EED/SUZ12/RbAp48/AEBP2), sequence (Q6ZN18 whole entry partner): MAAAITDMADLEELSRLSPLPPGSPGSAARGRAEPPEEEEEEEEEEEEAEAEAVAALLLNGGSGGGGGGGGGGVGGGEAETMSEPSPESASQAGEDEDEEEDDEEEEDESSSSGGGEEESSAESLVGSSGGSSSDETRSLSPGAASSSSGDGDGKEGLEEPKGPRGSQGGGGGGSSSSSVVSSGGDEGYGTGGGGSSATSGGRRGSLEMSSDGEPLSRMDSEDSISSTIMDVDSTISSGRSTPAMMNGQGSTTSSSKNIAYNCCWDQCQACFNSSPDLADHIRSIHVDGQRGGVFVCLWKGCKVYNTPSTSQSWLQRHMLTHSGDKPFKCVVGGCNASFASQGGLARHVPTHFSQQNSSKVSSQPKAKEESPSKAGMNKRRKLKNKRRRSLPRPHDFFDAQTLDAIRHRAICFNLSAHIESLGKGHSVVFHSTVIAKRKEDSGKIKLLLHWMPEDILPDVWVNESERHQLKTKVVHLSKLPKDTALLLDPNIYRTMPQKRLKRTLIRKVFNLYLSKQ

`CCN(c1c(C)c(C(=O)NCc2c(C)cc(C)[nH]c2=O)cc2cc(Br)cn12)C1CCN(C(C)=O)CC1` [Example 62, 5-((1-acetylpiperidin-4-yl)(ethyl)amino)-2-bromo-N-((4,6-dimethyl-2-oxo-1,2-dihydropyridine-3-yl)methyl)-6-methylindolizine-7-carboxamide] and `CCN(c1c(C)c(C(=O)NCc2c(C)cc(C)[nH]c2=O)cc2cc(-c3cn(C)cn3)cn12)C1CCOCC1` [Example 73, N-((4,6-dimethyl-2-oxo-1,2-dihydropyridin-3-yl)methyl)-5-(ethyl(tetrahydro-2H-pyran-4-yl)amino)-6-methyl-2-(1-methyl-1H-imidazol-4-yl)indolizin-7-carboxamide] cannot be ordered by IC50: < 0.1 µM for the first, < 0.1 µM for the second.

`Cc1cc(C)c(CNC(=O)c2cc3cncn3c(N(C)C3CCOCC3)c2C)c(=O)[nH]1` [Example 68, N-((4,6-dimethyl-2-oxo-1,2-dihydropyridin-3-yl)methyl)-6-methyl-5-(methyl(tetrahydro-2H-pyran-4-yl)amino)imidazo[1,5-a]pyridine-7-carboxamide] and `Cc1cc(C)c(CNC(=O)c2cc3cc(-c4nccn4C)cn3c(C(C)N3CCOCC3)c2C)c(=O)[nH]1` (stereo not shown) [Example 79, N-((4,6-dimethyl-2-oxo-1,2-dihydropyridin-3-yl)methyl)-6-methyl-2-(1-methyl-1H-imidazole-2-yl)-5-(1-morpholinoethyl)indolizine-7-carboxamide] cannot be ordered by IC50: < 0.1 µM for the first, < 0.1 µM for the second.

Compared with `Cc1cc(C)c(CNC(=O)c2cc3cc(-c4ccncc4)cn3c(C(C)N3CCC(N(C)C)CC3)c2C)c(=O)[nH]1` (stereo not shown) [Example 93, N-((4,6-dimethyl-2-oxo-1,2-dihydropyridin-3-yl)methyl)-5-(1-(4-(dimethylamino)piperidine-1-yl)ethyl)-6-methyl-2-(pyridin-4-yl)indolizine-7-carboxamide], `COc1ccc(-c2cc3cc(C(=O)NCc4c(C)cc(C)[nH]c4=O)c(C)c(C(C)N4CCOCC4)n3c2)cc1` (stereo not shown) [Example 97, N-((4,6-dimethyl-2-oxo-1,2-dihydropyridin-3-yl)methyl)-2-(4-methoxyphenyl)-6-methyl-5-(1-morpholinoethyl)indolizine-7-carboxamide] is higher in IC50: < 0.1 µM for the first, 0.1 to 1 µM for the second. The first is the more potent here.

Same assay, conditions: read-out: IC50 (EZH2_Y641F); EZH2 Y641F PRC2 complex, HTRF; class symbols

`CCN(c1c(C)c(C(=O)NCc2c(C)cc(C)[nH]c2=O)cc2cc(Br)cn12)C1CCNCC1` [Example 61, 2-bromo-N-((4,6-dimethyl-2-oxo-1,2-dihydropyridin-3-yl)methyl)-5-(ethyl(piperidin-4-yl)amino)-6-methylindolizine-7-carboxamide] and `CCN(c1c(C)c(C(=O)NCc2c(C)cc(C)[nH]c2=O)cc2cc(-c3ccnn3C)cn12)C1CCOCC1` [Example 64, N-((4,6-dimethyl-2-oxo-1,2-dihydropyridin-3-yl)methyl)-5-(ethyl(tetrahydro-2H-pyran-4-yl)amino)-6-methyl-2-(4-morpholinephenyl)indolizine-7-carboxamide] fall in the same range of IC50: 0.1 to 1 µM for the first, 0.1 to 1 µM for the second.

Compared with `CCN(c1c(C)c(C(=O)NCc2c(C)cc(C)[nH]c2=O)cc2cc(-c3ccccc3)cn12)C1CCOCC1` [Example 63], `CCN(c1c(C)c(C(=O)NCc2c(C)cc(C)[nH]c2=O)cc2cc(-c3cnn(C)c3)cn12)C1CCOCC1` [Example 66, N-((4,6-dimethyl-2-oxo-1,2-dihydropyridin-3-yl)methyl)-5-(ethyl(tetrahydro-2H-pyran-4-yl)amino)-6-methyl-2-(1-methyl-1H-pyrazol-4-yl)indolizin-7-carboxamide] is lower in IC50: 0.1 to 1 µM for the first, < 0.1 µM for the second.

First: CCN(c1c(C)c(C(=O)NCc2c(C)cc(C)[nH]c2=O)cc2cc(-c3ccnn3C)cn12)C1CCOCC1 [Example 65, N-((4,6-dimethyl-2-oxo-1,2-dihydropyridin-3-yl)methyl)-5-(ethyl(tetrahydro-2H-pyran-4-yl)amino)-6-methyl-2-(1-methyl-1H-pyrazol-5-yl)indolizin-7-carboxamide]
Second: CCN(c1c(C)c(C(=O)NCc2c(C)cc(C)[nH]c2=O)cc2cc(-c3nccs3)cn12)C1CCOCC1 [Example 67, N-((4,6-dimethyl-2-oxo-1,2-dihydropyridin-3-yl)methyl)-5-(ethyl(tetrahydro-2H-pyran-4-yl)amino)-6-methyl-2-(thiazol-2-yl)indolizin-7-carboxamide]
The IC50 of the first is lower: < 0.1 µM for the first, 0.1 to 1 µM for the second.

`Cc1cc(C)c(CNC(=O)c2cc3cc(Cl)cn3c(C(C)N3CCOCC3)c2C)c(=O)[nH]1` (stereo not shown) [Example 69, 2-chloro-N-((4,6-dimethyl-2-oxo-1,2-dihydropyridin-3-yl)methyl)-6-methyl-5-(1-morphinolinylethyl)indolizine-7-carboxamide] and `Cc1cc(C)c(CNC(=O)c2cc3cncn3c(C(C)N3CCOCC3)c2C)c(=O)[nH]1` (stereo not shown) [Example 71, N-((4,6-dimethyl-2-oxo-1,2-dihydropyridin-3-yl)methyl)-6-methyl-5-(1-morphinolinylethyl)imidazo[1,5-a]pyridine-7-carboxamide] cannot be ordered by IC50: < 0.1 µM for the first, < 0.1 µM for the second.

First: Cc1cc(C)c(CNC(=O)c2cc3cc(Cl)cn3c(C(C)N3CCC(N(C)C)CC3)c2C)c(=O)[nH]1 (stereo not shown) [Example 70]
Second: Cc1cc(C)c(CNC(=O)c2cc3cc(-c4ccn(C)n4)cn3c(C(C)N3CCC(N(C)C)CC3)c2C)c(=O)[nH]1 (stereo not shown) [Example 76]
The IC50 of the first is lower: < 0.1 µM for the first, 0.1 to 1 µM for the second. The first is the more potent here.

First: Cc1cc(C)c(CNC(=O)c2cc3cc(-c4ccn(C)n4)cn3c(C(C)N3CCC(N(C)C)CC3)c2C)c(=O)[nH]1 (stereo not shown) [Example 77, N-((4,6-dimethyl-2-oxo-1,2-dihydropyridin-3-yl)methyl)-5-(1-(4-(dimethylamino)piperidine-1-yl)ethyl)-6-methyl-2-(1-methyl-1H-pyrazol-3-yl)indolizin-7-carboxamide]
Second: Cc1cc(C)c(CNC(=O)c2cc3cc(-c4ccn(C)n4)cn3c(C(C)N3CCOCC3)c2C)c(=O)[nH]1 (stereo not shown) [Example 85, N-((4,6-dimethyl-2-oxo-1,2-dihydropyridin-3-yl)methyl)-6-methyl-2-(1-methyl-1H-pyrazole-3-yl)-5-(1-morpholinoethyl)indolizine-7-carboxamide]
The IC50 of the first is lower: < 0.1 µM for the first, 0.1 to 1 µM for the second. The first is the more potent here.

First: Cc1cc(C)c(CNC(=O)c2cc3cc(-c4cccc(CN5CCOCC5)c4)cn3c(C(C)N3CCOCC3)c2C)c(=O)[nH]1 (stereo not shown) [Example 80, N-((4,6-dimethyl-2-oxo-1,2-dihydropyridin-3-yl)methyl)-5-(1-morpholine-1-ethyl)-6-methyl-2-(3-(morpholinemethylene)phenyl)indolizin-7-amide]
Second: COc1cccc(-c2cc3cc(C(=O)NCc4c(C)cc(C)[nH]c4=O)c(C)c(C(C)N4CCOCC4)n3c2)c1 (stereo not shown) [Example 95]
The IC50 of the first is higher: 0.1 to 1 µM for the first, < 0.1 µM for the second.

`Cc1cc(C)c(CNC(=O)c2cc3c(-c4ccccc4)ccn3c(C(C)N3CCOCC3)c2C)c(=O)[nH]1` (stereo not shown) [Example 81] and `COc1cccc(-c2cc3cc(C(=O)NCc4c(C)cc(C)[nH]c4=O)c(C)c(C(C)N4CCOCC4)n3c2)c1` (stereo not shown) [Example 96, N-((4,6-dimethyl-2-oxo-1,2-dihydropyridin-3-yl)methyl)-2-(3-methoxyphenyl)-6-methyl-5-(1-morpholinylethyl)indolizine-7-carboxamide] cannot be ordered by IC50: < 0.1 µM for the first, < 0.1 µM for the second.

`Cc1cc(C)c(CNC(=O)c2cc3c(-c4ccccc4)ccn3c(C(C)N3CCOCC3)c2C)c(=O)[nH]1` (stereo not shown) [Example 82, N-((4,6-dimethyl-2-oxo-1,2-dihydropyridin-3-yl)methyl)-6-methyl-5-(1-morphinolinylethyl)-1-phenylindolizine-7-carboxamide] and `Cc1cc(C)c(CNC(=O)c2cc3cc(-c4ccc(N)nc4)cn3c(C(C)N3CCOCC3)c2C)c(=O)[nH]1` (stereo not shown) [Example 89, 2-(6-aminopyridin-3-yl)-N-((4,6-dimethyl-2-oxo-1,2-dihydropyridin-3-yl)methyl)-6-methyl-5-(1-morpholinylethyl)indolizine-7-amide] cannot be ordered by IC50: < 0.1 µM for the first, < 0.1 µM for the second.

Compared with `COc1cc(C)[nH]c(=O)c1CNC(=O)c1cc2cc(-c3ccnn3C)cn2c(C(C)N2CCN(CC(F)(F)F)CC2)c1C` (stereo not shown) [Example 83, N-((4-methoxy-6-methyl-2-oxo-1,2-dihydropyridin-3-yl)methyl)-6-methyl-2-(1-methyl-1H-pyrazol-5-yl)-5-(1-(4-(2,2,2-trifluoroethyl)piperazin-1-yl)ethyl)indolizine-7-carboxamide], `Cc1cc(C)c(CNC(=O)c2cc3cc(-c4ccnn4C)cn3c(C(C)N3CCN(CC(F)(F)F)CC3)c2C)c(=O)[nH]1` (stereo not shown) [Example 84, N-((4,6-dimethyl-2-oxo-1,2-dihydropyridin-3-yl)methyl)-6-methyl-2-(1-methyl-1H-pyrazole-5-yl)-5-(1-(4-(2,2,2-trifluoroethyl)piperazin-1-yl)ethyl)indolizine-7-carboxamide] is higher in IC50: < 0.1 µM for the first, 0.1 to 1 µM for the second.

`Cc1cc(C)c(CNC(=O)c2cc3cc(-c4cncn4C)cn3c(C(C)N3CCOCC3)c2C)c(=O)[nH]1` (stereo not shown) [Example 86, N-((4,6-dimethyl-2-oxo-1,2-dihydropyridin-3-yl)methyl)-6-methyl-2-(1-methyl-1H-imidazole-5-yl)-5-(1-morpholinoethyl)indolizine-7-carboxamide] and `Cc1cc(C)c(CNC(=O)c2cc3cc(-c4ccc(N5CCN(C)CC5)nc4)cn3c(C(C)N3CCOCC3)c2C)c(=O)[nH]1` (stereo not shown) [Example 91] cannot be ordered by IC50: < 0.1 µM for the first, < 0.1 µM for the second.

Compared with `Cc1cc(C)c(CNC(=O)c2cc3cc(-c4ccc(N5CCNCC5)nc4)cn3c(C(C)N3CCOCC3)c2C)c(=O)[nH]1` (stereo not shown) [Example 90, N-((4,6-dimethyl-2-oxo-1,2-dihydropyridin-3-yl)methyl)-6-methyl-5-(1-morpholinoethyl)-2-(6-(piperazin-1-yl)pyridin-3-yl)indolizine-7-carboxamide], `CCN1CCN(C(C)c2c(C)c(C(=O)NCc3c(C)cc(C)[nH]c3=O)cc3cc(Br)cn23)CC1` (stereo not shown) [Example 98, N-((4,6-dimethyl-2-oxo-1,2-dihydropyridin-3-yl)methyl)-6-methyl-5-(1-(4-methylpiperazine)-1-ethyl)-2-bromoindolizine-7-carboxamide] is lower in IC50: 1 to 10 µM for the first, 0.1 to 1 µM for the second. The second is the more potent here.

`COc1cc(-c2cc3cc(C(=O)NCc4c(C)cc(C)[nH]c4=O)c(C)c(C(C)N4CCC(N(C)C)CC4)n3c2)cc(OC)c1OC` (stereo not shown) [Example 92, N-((4,6-dimethyl-2-oxo-1,2-dihydropyridin-3-yl)methyl)-5-(1-(4-(dimethylamino)piperidine-1-yl)ethyl)-6-methyl-2-(3,4,5-trimethoxyphenyl)-indolizine-7-carboxamide] was tested, and the IC50 was < 0.1 µM.
